Measured values taken from patent US20150148415A1, “DERIVATIZED DENDRIMER WITH LOW CITOTOXICITY FOR IN VIVO, EX VIVO, IN VITRO OR IN SITU CHELATION OF HEAVY METALS OR ACTINIDES” (priority 2013, published 2015).

Test system: C57BL/6 mice
Assay: In vivo acute toxicity assay, substance given alone (serum biochemistry, kidney histology)
Protocol: Animals. A total of 48 male C57BL/6 mice weighing 25-30 g purchased from the Instituto de Salud Pública (ISP), were used. Animal housing and experiment protocols were approved by the University of Talca in adherence to Conicyt experimental animal administrative regulations. All groups were maintained at a constant temperature (22±1° C.) on a 12-h light/12-h dark cycle (lights-on at 08:00 a.m.) and had free access to food and water.
Animal experimental design. […] Animals were euthanized 48 h later and blood samples were collected from the heart for the assessment of serum urea, creatinine, Lactate Deshidrogenase (LDH), Uric Acid and Calcium
Examination of nephrotoxicity. Mice were anaesthetized with sodium pentobarbitone and blood samples were collected from the heart and the kidneys were removed. Serum levels of urea, creatinine, LDH, Uric Acid and Calcium were determined using commercially available kits according to the protocols provided by Valtek (Valtek Diagnostic, Nuñoa, Chile). Left kidneys were fixed in 10% neutral buffered formaldehyde, embedded in paraffin wax and automatically processed. Sections (3 μm in thickness) of the embedded tissue were stained with hematoxylin-eosin for observation under light microscope.
Statistical analysis. The in vitro data were obtained from at least three independent experiments with three replicates, and all data are expressed as mean±SD. Experimental groups were compared using a one-way analysis of variance (ANOVA) followed by Scheffé's test when the data were normally distributed and by the Kruskal-Wallis test when they were not normally distributed. p-Values <0.05 were considered significant. Statistical tests were performed using GraphPad Prism 5 software, version 5.0 for Mac OS X.

[1] = substance alone ip (UO2 5 mg/kg of uranium; G4-Lys-Fmoc-Cbz 16 mg/kg; G5-Cou 40 mg/kg; EDTA 75 mg/kg), serum 48 h

With `CC(=O)O.CC(=O)O.O.O.[O]=[U]=[O]` [UO2^−, UO2(CH3COO)2.2H2O] the concentration of creatinine (UO2 alone, 5 mg/kg of uranium ip, serum 48 h) was 1.7±0.5, the Calcium [1] was 8.8 ± 0.57 mg/dL and the Urea [1] was 226.3 ± 39.4 mg/dL. The “Uric Acid” value [1] was 2.5 ± 0.39 mg/dL, the “kidney histology (hematoxylin-eosin)” value (substance alone ip, 48 h) was “irreversible damage with necrosis” and the “LDH (wide spectre toxicity indicator)” value (substance alone ip, serum 48 h) was “induced a significant increase of the enzyme”.
